Results reported in publication PMC6182381, “Population Pharmacokinetics and Exposure-Response Relationships of Naldemedine” (Pharmaceutical Research, 2018).
Read-outs that look alike come from different tables or passages of the source.

Key:
[1] = Population PK analysis of plasma naldemedine concentrations (NONMEM, 2-compartment model); format: in vivo, human; settings: for AUC: human, plasma, oral
Protocol: A population PK model was developed with pooled naldemedine concentrations from healthy subjects, patients with chronic non-cancer pain and OIC, and cancer patients with OIC as described in Table I. Blood sampling times for PK analysis in each study are shown in Supplemental Table S1. All studies were performed in accordance with the Declaration of Helsinki, the International Conference on Harmonization (ICH) E6 Guidance for Good Clinical Practice and all other applicable regulatory requirements. Study protocols were approved by the responsible institutional review boards. Written informed consent for each clinical study was obtained from all subjects.
Background data available for subjects were summarized and used as candidate covariates: age, body weight, body mass index (BMI), albumin (ALBU), aspartate aminotransferase (AST) and alanine aminotransferase (ALT), total bilirubin (Tbil), and creatinine clearance (CLcr) at baseline as continuous data, and gender (male, female), race/ethnicity (“White” or “non-White”, “Japanese” or “non-Japanese”, “Hispanic or Latino” or “non-Hispanic or non-Latino”), health status (healthy subjects/ Patients with chronic non-cancer pain and OIC/ Cancer patients with OIC), dosing conditions (dosing in the fasted/fed state, with/without concomitant use of P-gp/CYP3A inhibitor/inducer), and formulation (“solution or suspension”, “phase 1 or 2 tablet”, “phase 3 tablet”) as categorical data. Background data at baseline were obtained from observations prior to or on the first day of dosing, or at screening if this value was not available. Categorical age (<65 years or ≥ 65 years) was also used. CLcr was calculated using the Cockcroft-Gault eq. ([12]). Data from the concomitant treatment period in the phase 1 DDI studies [1202 V9218, 1403V921D, and 1502V921E]), in which co-administrations of P-gp/CYP3A inhibitor/inducer (cyclosporine, rifampin, itraconazole, or fluconazole) with naldemedine were designed as the worst case scenario for each inhibitor/inducer (single dose of cyclosporine 600 mg, rifampin 600 mg for 17 days, itraconazole 200 mg for 7 days, fluconazole 200 mg for 7 days), were excluded from the population PK analysis because they were not clinically relevant to the OIC treatment. Food condition was assumed as fasted in phase 2b studies (1107 V9221 and 1108 V9222), in which the date/time of food intake had not been recorded. Food condition was defined as fasted in cases where naldemedine was administered more than 1 h after the food intake in phase 3 studies (1314 V9231, 1315 V9232, 1331 V9236, 1336 V9238, and 1339 V9239).
The bioanalytical methods for determination of concentrations of naldemedine and its metabolites in human plasma were validated with the lower limit of quantification (LLOQ) being 0.01 ng/ml for naldemedine ([11]). Plasma samples were analyzed after solid phase extraction by a liquid chromatography/mass spectrometry/mass spectrometry (LC/MS/MS) method using the positive ion mode and multiple reaction monitoring. All the analytical methods were validated across the calibration range with respect to selectivity, recovery, accuracy, precision, and stability under a variety of conditions.
The population PK analysis was performed by using the non-linear mixed effect modeling software NONMEM (version 7.3, ICON Development Solutions, US), with PREDPP library and NM-TRAN preprocessor ([13]). To support analyses by NONMEM, Perl-speaks-NONMEM (PsN) (version 4.2) and Xpose (version 4.2.1) were used ([14]). The first order conditional estimation with interaction (FOCE-I) method was used for the analysis.
The PK profiles of naldemedine were examined using conventional compartment disposition models with first order absorption based on the PK in healthy volunteers ([11]). To determine the basic structural PK model for naldemedine, 1-, 2- and 3-compartment models with first order absorption were tested. […]

[2] = set-up: method as in PMID 28466424, PMID 28960888; settings: cited from earlier work
[3] = 1314V9231_1315V9232 (Phase 3), 0.2 mg
[4] = final model, bootstrap estimates

CC(C)(NC(=O)C1=C(O)[C@@H]2Oc3c(O)ccc4c3[C@@]23CCN(CC2CC2)[C@H](C4)[C@]3(O)C1)c1nc(-c2ccccc2)no1 [naldemedine]
Empirical Bayesian-estimated AUCss, Max ([1]; 1107V9221 (Phase 2b), 0.1 mg): 13.49 ng·h/mL
Empirical Bayesian-estimated AUCss, Min ([1]; 1107V9221 (Phase 2b), 0.1 mg): 7.02 ng·h/mL
Empirical Bayesian-estimated AUCss, Max ([1]; 1107V9221 (Phase 2b), 0.2 mg): 51.36 ng·h/mL
Empirical Bayesian-estimated AUCss, Min ([1]; 1107V9221 (Phase 2b), 0.2 mg): 12.66 ng·h/mL
Empirical Bayesian-estimated AUCss, Max ([1]; 1107V9221 (Phase 2b), 0.4 mg): 74.93 ng·h/mL
Empirical Bayesian-estimated AUCss, Min ([1]; 1107V9221 (Phase 2b), 0.4 mg): 25.78 ng·h/mL
Empirical Bayesian-estimated AUCss, Max [1, 3]: 92.1 ng·h/mL
Empirical Bayesian-estimated AUCss, Min [1, 3]: 5.669 ng·h/mL
Empirical Bayesian-estimated CL/F, Mean ([1]; 1314V9231_1315V9232, Age 65 -< 75): 7.63 L/h
Empirical Bayesian-estimated CL/F, Mean ([1]; 1314V9231_1315V9232, Age < 65): 8.89 L/h
Empirical Bayesian-estimated CL/F, Mean ([1]; 1314V9231_1315V9232, Age >= 65): 7.61 L/h
Empirical Bayesian-estimated CL/F, Mean ([1]; 1314V9231_1315V9232, Age >= 75): 7.54 L/h
Empirical Bayesian-estimated CL/F, Mean ([1]; 1314V9231_1315V9232, Asian): 13.1 L/h
Empirical Bayesian-estimated CL/F, Mean ([1]; 1314V9231_1315V9232, Black): 7.51 L/h
Empirical Bayesian-estimated CL/F, Mean ([1]; 1314V9231_1315V9232, Female): 8.48 L/h
Empirical Bayesian-estimated CL/F, Mean ([1]; 1314V9231_1315V9232, Male): 9.08 L/h
Empirical Bayesian-estimated CL/F, Mean ([1]; 1314V9231_1315V9232, OIC non-Cancer): 8.73 L/h
Empirical Bayesian-estimated CL/F, Mean ([1]; 1314V9231_1315V9232, White): 9.00 L/h
Empirical Bayesian-estimated CL/F, Mean ([1]; 1314V9231_1315V9232, non-White): 7.59 L/h
Empirical Bayesian-estimated CL/F, Mean ([1]; 1314V9231_1315V9232, race Others): 6.36 L/h
Empirical Bayesian-estimated CL/F, Mean ([1]; 1331V9236 (cancer patients), Age 65 -< 75): 7.15 L/h
Empirical Bayesian-estimated CL/F, Mean ([1]; 1331V9236 (cancer patients), Age < 65): 7.51 L/h
Empirical Bayesian-estimated CL/F, Mean ([1]; 1331V9236 (cancer patients), Age >= 65): 7.15 L/h
Empirical Bayesian-estimated CL/F, Mean ([1]; 1331V9236 (cancer patients), Age >= 75): 7.16 L/h
Empirical Bayesian-estimated CL/F, Mean ([1]; 1331V9236 (cancer patients), Asian): 7.34 L/h
Empirical Bayesian-estimated CL/F, Mean ([1]; 1331V9236 (cancer patients), Female): 6.54 L/h
Empirical Bayesian-estimated CL/F, Mean ([1]; 1331V9236 (cancer patients), Male): 7.85 L/h
Empirical Bayesian-estimated CL/F, Mean ([1]; 1331V9236 (cancer patients), non-White): 7.34 L/h
Empirical Bayesian-estimated CL/F, Mean ([1]; 1331V9236, OIC Cancer): 7.34 L/h
ALAG ([1]; base model): 0.195 h
CL/F ([1]; base model): 8.20 L/h
Inter-individual variability of CL/F ([1]; base model): 40.5 CV%
Inter-individual variability of Ka ([1]; base model): 168.2 CV%
Inter-individual variability of Q/F ([1]; base model): 50.5 CV%
Inter-individual variability of Vc/F ([1]; base model): 38.5 CV%
Inter-individual variability of Vp/F ([1]; base model): 37.7 CV%
Intra-individual variability, proportional ([1]; base model): 25.6 CV%
Ka ([1]; base model): 3.81 h⁻¹
Q/F ([1]; base model): 5.02 L/h
Vc/F ([1]; base model): 83.6 L
Vp/F ([1]; base model): 43.2 L
AUC ([1]; both sexes, 0.2 mg, reference population, 0.2 mg once daily, read-out: typical AUCss): 22 ng·h/mL
decrease of population predicted AUCss vs reference population ([1]; covariates at extreme values): 25%
increase of population predicted AUCss vs reference population ([1]; covariates at extreme values): 76%
ALAG ([1]; final model): 0.195 h
Inter-individual variability of CL/F ([1]; final model): 37.9 CV%
Inter-individual variability of Ka ([1]; final model): 161.2 CV%
Inter-individual variability of Q/F ([1]; final model): 46.3 CV%
Inter-individual variability of Vc/F ([1]; final model): 25.3 CV%
Inter-individual variability of Vp/F ([1]; final model): 36.3 CV%
Intra-individual variability, proportional ([1]; final model): 25.7 CV%
Q/F ([1]; final model): 4.77 L/h
THETA (7), effect of non-Cancer OIC patients on Vc/F ([1]; final model): 1.20
THETA (8), effect of Cancer patients with OIC on Vc/F ([1]; final model): 1.27
THETA (9), effect of fed condition on Vc/F ([1]; final model): 1.12
THETA (11), exponent of Age/52 on Ka ([1]; final model): −1.16
Vp/F ([1]; final model): 41.8 L
ALAG, bootstrap median [1, 4]: 0.196 h
CL/F, THETA (1), bootstrap median [1, 4]: 9.15 L/h
Inter-individual variability of CL/F, bootstrap median [1, 4]: 38.6 CV%
Inter-individual variability of Ka, bootstrap median [1, 4]: 161.0 CV%
Inter-individual variability of Q/F, bootstrap median [1, 4]: 47.5 CV%
Inter-individual variability of Vc/F, bootstrap median [1, 4]: 25.2 CV%
Inter-individual variability of Vp/F, bootstrap median [1, 4]: 36.2 CV%
Intra-individual variability, proportional, bootstrap median [1, 4]: 25.5 CV%
Ka, THETA (10), bootstrap median [1, 4]: 2.90 h⁻¹
Q/F, bootstrap median [1, 4]: 4.73 L/h
THETA (7), non-Cancer on Vc/F, bootstrap median [1, 4]: 1.19
THETA (8), Cancer on Vc/F, bootstrap median [1, 4]: 1.28
THETA (9), fed condition on Vc/F, bootstrap median [1, 4]: 1.12
THETA (11), Age on Ka, bootstrap median [1, 4]: −1.23
Vc/F, THETA (6), bootstrap median [1, 4]: 76.0 L
Vp/F, bootstrap median [1, 4]: 41.6
Ka, THETA (10) ([1]; final model, age 52): 2.94 h⁻¹
Vc/F, THETA (6) ([1]; final model, healthy subjects, body weight 76 kg, fasted): 75.9 L
Vc/F ([1]; final model, reference population: 76 kg, non-cancer OIC patients, fasted): 91.1 L
CL/F, THETA (1) ([1]; final model, reference: 52-year-old, male, White, CLcr 108 ml/min): 9.10 L/h
AUC ([1]; 0.1 mg, 1107V9221 (Phase 2b), 0.1 mg, read-out: Empirical Bayesian-estimated AUCss, Geometric Mean): 10.2 ng·h/mL
AUC ([1]; 0.1 mg, 1107V9221 (Phase 2b), 0.1 mg, read-out: Empirical Bayesian-estimated AUCss, Mean): 10.5 ng·h/mL
AUC ([1]; 0.1 mg, 1107V9221 (Phase 2b), 0.1 mg, read-out: Empirical Bayesian-estimated AUCss, Median): 10.4 ng·h/mL
AUC ([1]; 0.2 mg, 1107V9221 (Phase 2b), 0.2 mg, read-out: Empirical Bayesian-estimated AUCss, Geometric Mean): 20.3 ng·h/mL
AUC ([1]; 0.2 mg, 1107V9221 (Phase 2b), 0.2 mg, read-out: Empirical Bayesian-estimated AUCss, Mean): 22.1 ng·h/mL
AUC ([1]; 0.2 mg, 1107V9221 (Phase 2b), 0.2 mg, read-out: Empirical Bayesian-estimated AUCss, Median): 20.2 ng·h/mL
AUC ([1]; 0.2 mg, 1314V9231_1315V9232 (Phase 3), 0.2 mg, read-out: Empirical Bayesian-estimated AUCss, Geometric Mean): 25.1 ng·h/mL
AUC ([1]; 0.2 mg, 1314V9231_1315V9232 (Phase 3), 0.2 mg, read-out: Empirical Bayesian-estimated AUCss, Mean): 27.5 ng·h/mL
AUC ([1]; 0.2 mg, 1314V9231_1315V9232 (Phase 3), 0.2 mg, read-out: Empirical Bayesian-estimated AUCss, Median): 24.5 ng·h/mL
AUC ([1]; 0.4 mg, 1107V9221 (Phase 2b), 0.4 mg, read-out: Empirical Bayesian-estimated AUCss, Geometric Mean): 41.6 ng·h/mL
AUC ([1]; 0.4 mg, 1107V9221 (Phase 2b), 0.4 mg, read-out: Empirical Bayesian-estimated AUCss, Mean): 43.8 ng·h/mL
AUC ([1]; 0.4 mg, 1107V9221 (Phase 2b), 0.4 mg, read-out: Empirical Bayesian-estimated AUCss, Median): 38.2 ng·h/mL
time dependence of PK ([2]; AUC Day 1 vs AUCss Day 10, multiple dose study): time-independent
dose proportionality of systemic exposure ([2]; dose range 0.1 mg to 100 mg): almost dose proportional
time to reach steady state ([2]; multiple dose study, 3 mg, 10 mg and 30 mg, trough Days 2 to 10): ≤ 2 days
